# Tested on: CD4+ LNC from PLP primed SJL/J mice
# Assay: In vitro proliferation ([3H]-thymidine) of PLP139-151 restimulated CD4+ LNC from primed SJL/J mice
# Assay type: cell-based, mouse
# Details: with Pep-1, PLP 40 μg/ml, 72 h
# Method: CD4+ lymph node cells (LNC) isolated from the draining lymph nodes harvested from SJL/J mice 10 days after immunization with PLP139-151 were cultured in 96-well plates at […] in complete RPMI and restimulated with the PLP peptide (40 μg/ml) for 72 h, including a final 16-h pulse with [^3H]-thymidine. […] Separate cultures stimulated with ova (40 μg/ml) served as control for antigen specificity. Irradiated splenocytes from syngenic mice were used as antigen presenting cells (APC). Cultures were harvested onto glass fiber mats using a Skatron harvester (Skatron, Sterling, Va.), and the levels of [^3H]-thymidine incorporation were determined by liquid scintillation counting (Microbeta; Wallac, Turku, Finland). Results were confirmed by replicate experiments. Data are expressed as Δcpm (counts/min incorporated in antigen-stimulated culture-counts/min incorporated by control unstimulated culture).
# Supernatants collected at 24 and 48 h were assessed for specific cytokines using the OptEIA kits (BD Biosciences). Proliferation assays included parallel cultures for 72 h with a final 18-h pulse with [^3H]thymidine measured by liquid scintillation counting (Microbeta, Turku, Finland).
structure (smiles),measurement,value
"C[C@@H]1C[C@H]2[C@@H]3CCC4=CC(=O)C=C[C@]4(C)[C@@]3(F)[C@@H](O)C[C@]2(C)[C@@]1(O)C(=O)CO [dexamethasone, reference compound]",proliferative response (Δcpm),2226+/−327 cpm
